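96-well plates; 48 h exposure; 5 concentrations. Endpoints by linear interpolation between flanking doses. Not reached: highest tested concentration assigned. The concentration for 50% growth inhibition is given as GI50. TGI: total growth inhibition.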
Each compound was assayed on MDA-MB-468 breast (assay: NCI anticancer screen, dose series, 48 h).

Row | SMILES | GI50 | TGI
1 | COCC[C@H]1CCC/C=C/[C@@H]2C[C@H](O)C[C@H]2[C@H](O)/C=C/C(=O)O1 | 24.5 nM | 71.4 nM
2 | COC(=O)Nc1nc2ccc(C3(c4ccc(F)cc4)OCCO3)cc2[nH]1 | 159 nM | 1190 nM
3 | NC(=O)c1cc(Cl)ccc1NC(=O)/C=C/c1ccccc1 | 1100 nM | 11500 nM
4 | COc1c(C(=O)/C=C/c2ccccc2)c(O)cc2occc12 | 6770 nM | 21400 nM
5 | COc1ccc(-c2[nH]c3ccc(OC)cc3c2/C=C(\C#N)S(=O)(=O)c2ccccc2)cc1 | 1330 nM | 44000 nM
6 | CCOC(=O)C1CCN(S(=O)(=O)/N=C2/NC(=O)NC2=C(Cl)Cl)CC1 | 387 nM | 2080 nM
7 | C/C(=N\Nc1ccc(Cl)cn1)c1ccc2ccccc2n1 | 2880 nM | > 100000 nM
8 | C=C1C(=O)O[C@H]2[C@H]1CC/C(COC(=O)NCCCCNC(=O)OC/C1=C/CC[C@@]3(C)O[C@H]3[C@H]3OC(=O)C(=C)[C@@H]3CC1)=C\CC[C@@]1(C)O[C@@H]21 | 426 nM | 2000 nM
9 | CCc1nc2cc(F)c(/C=C/C(=O)NO)cc2c(=O)n1CCc1ccccc1 | 217 nM | 761 nM
10 | CCCCC(CC)COC(=O)C[N+](C)(C)CCOC(c1ccccc1)c1ccccc1 (stereo unspecified) | 1460 nM | 3120 nM
11 | Cc1ccc(NC(=O)c2cccc(C(C)(C)C#N)c2)cc1Nc1ccc2ncn(C)c(=O)c2c1 | 15800 nM | > 100000 nM
12 | CC(C)c1ccc(-c2cc(-c3cn[nH]c3-c3ccccn3)ccn2)cc1 | 10500 nM | 24700 nM
13 | COc1ccc(/C=C/c2c(C(=O)/C=C/c3ccccc3)c(C)nc3ccccc23)cc1 | 1780 nM | 3480 nM
14 | COc1cc(OC)c(C(=O)/C=C/c2cccc(C(F)(F)F)c2)c(OC)c1 | 755 nM | 2010 nM
15 | Cc1cc2ncnn2cc1Nc1ncc2c(n1)n(C1CCOCC1)c(=O)n2C | 4370 nM | 44800 nM
16 | Cc1cc(C)c(NC(=O)c2sc3nc4c(cc3c2N)C(=O)CCC4)c(C)c1 | 651 nM | 4390 nM
17 | COc1ccc(-c2nc3ccccn3c2/C=C/C(=O)c2cc(OC)c(OC)c(OC)c2)cc1OC | 2280 nM | 5710 nM
18 | CC/C=C\C[C@H](O)C/C=C1/C(=O)C=C[C@@H]1C/C=C\CCCC(=O)OC | 1680 nM | 3770 nM
19 | CC1=CC(=O)C=CC1=O | 1570 nM | 3210 nM

Row | SMILES | GI50 | TGI
20 | O=C(Nc1n[nH]c2cc(-c3ccccc3)ccc12)C1CC1 | 4000 nM | > 25000 nM
21 | Nc1nc(Nc2cccnc2)sc1C(=O)c1ccccc1F | 1370 nM | 4040 nM
22 | NS(=O)(=O)c1ccc(-c2ccc3c(NC(=O)C4CC4)n[nH]c3c2)cc1 | > 21600 nM | > 25000 nM
23 | CCCC(CCC)NCC(O)c1cc(-c2ccc(C(F)(F)F)cc2)nc(C(F)(F)F)c1 (stereo unspecified) | 1580 nM | 2980 nM
24 | CN1CCN(CCCNc2nc3ccc(Oc4ccc(NC(=O)Nc5cc(C(F)(F)F)ccc5F)cc4)cc3[nH]2)CC1 | 3330 nM | 6570 nM
25 | COc1ccccc1CNCCCN1C(=O)c2ccc3c4c(ccc(c24)C1=O)C(=O)N(CCCNCCNCCCN)C3=O | 456 nM | 2220 nM
26 | COc1cc2ncnc(-n3ncc4cc(NC(=O)Nc5ccccc5)ccc43)c2cc1OC | 1180 nM | 3350 nM
27 | COc1ccc(C(=O)c2cc(OC)c(OC)c(OC)c2)cc1/C=C/C(=O)c1ccc(F)cc1 | 4630 nM | 27100 nM
28 | COc1ccc2[nH]c3c4[nH]c5ccc(OC)cc5c4c4c(c3c2c1)C(=O)NC4=O | > 25000 nM | > 25000 nM
29 | CC1(C)C(=O)/C(=C\c2cccnc2)C[C@]2(C)[C@H]3CC[C@@H]4[C@H]5[C@H](C(=O)/C=C/c6cccnc6)CC[C@]5(C(=O)O)CC[C@@]4(C)[C@]3(C)CC[C@@H]12 | 2140 nM | 5700 nM
30 | CN1CCN(Cc2ccc(NC(=O)c3cncc(C#Cc4cnn5cccnc45)c3)cc2C(F)(F)F)CC1 | 8350 nM | 22800 nM
31 | COc1ccc(C(=O)c2cc(C)c(OC)c(C)c2)c(OC)c1O | 489 nM | > 100000 nM
32 | O=S(=O)(c1ccc(NC(=S)NC23CC4CC(CC(C4)C2)C3)cc1)N1CCCCC1 | 2270 nM | 6840 nM
33 | C=C(C)[C@H]1Cc2c(ccc3c2O[C@@H]2COc4cc(OC)c(OC)cc4[C@@H]2C3=O)O1 | 81.6 nM | > 100000 nM
34 | O=C1/C(=C(/c2ccccc2)N2CCOCC2)Cc2ccccc21 | 501 nM | 1900 nM
35 | C=C(C)[C@@H]1CC[C@]2(CO)CC[C@]3(C)[C@H](CC[C@@H]4[C@@]5(C)C=C(C#N)C(=O)C(C)(C)[C@@H]5CC[C@]43C)[C@@H]12 | 1300 nM | 3850 nM
36 | COc1ccc(C(=O)c2cc(C)c(OC)c(C)c2)cc1OC(=O)CCl | 89.4 nM | 75200 nM
37 | CCNCCNc1cc(-c2ccc(C(F)(F)F)cc2)c(C#N)c2nc3ccccc3n12 | 688 nM | 2140 nM
38 | Cc1cc(C(=O)Nc2ccc3cc(CN4CCOCC4)ccc3n2)c(C)n1-c1ccccc1 | 171 nM | 7110 nM

— PubChem BioAssay (NCI)
